In patent US10188108B2, “Fused bicyclic heterocycle derivatives as pesticides” (BAYER CROPSCIENCE AKTIENGESELLSCHAFT, priority 2015, dated 2019):
Like-named read-outs stand apart in the source and are kept apart here.

Tests used:
[1] = log P by HPLC on a reversed-phase column (C 18), EEC Directive 79/831 Annex V.A8; assay type: physicochemical; conditions: for LOGP_NEUTRAL: pH 7.8, 0.001 molar aqueous ammonium hydrogencarbonate/acetonitrile; for chromatographic logP: reversed-phase HPLC column (C 18)
Method: The log P values are measured according to EEC Directive 79/831 Annex V.A8 by HPLC (high-performance liquid chromatography) on a reversed-phase column (C 18). Temperature: 55° C.
The LC-MS determination in the acidic range is effected at pH 2.7 using 0.1% aqueous formic acid and acetonitrile (contains 0.1% formic acid) as eluents; linear gradient from 10% acetonitrile to 95% acetonitrile. Called log P (HCOOH) in the table.
LC-MS determination in the neutral range is effected at pH 7.8 with 0.001 molar aqueous ammonium hydrogencarbonate solution and acetonitrile as eluents; linear gradient from 10% acetonitrile to 95% acetonitrile. Called log P (neutral) in the table.
Calibration is carried out using unbranched alkan-2-ones (having 3 to 16 carbon atoms) with known log P values (log P values determined on the basis of the retention times by linear interpolation between two successive alkanones).

Phaedon cochleariae = Phaedon cochleariae - spray test; assay type: in vivo; conditions: after 7 days, larvae on Chinese cabbage leaf discs
Method: (§1) • Solvent: 78.0 parts by weight of acetone • 1.5 parts by weight of dimethylformamide • Emulsifier: alkylaryl polyglycol ether
(§2) To produce a suitable preparation of active compound, 1 part by weight of active compound is dissolved using the stated parts by weight of solvent and made up with water containing an emulsifier concentration of 1000 ppm until the desired concentration is attained. To produce further test concentrations, the preparation is diluted with emulsifier-containing water.
After 7 days, the efficacy in % is determined. 100% means that all the beetle larvae have been killed; 0% means that no beetle larvae have been killed.

Spodoptera frugiperda = Spodoptera frugiperda - spray test; assay type: in vivo; conditions: 500 g/ha, after 7 days, caterpillars on maize leaf discs
Method: as §1, §2
Leaf discs of maize (Zea mays) are sprayed with an active compound preparation of the desired concentration and, after drying, populated with caterpillars of the armyworm (Spodoptera frugiperda).
After 7 days, the efficacy in % is determined. 100% means that all the caterpillars have been killed; 0% means that no caterpillars have been killed.

[2] = acidic range, pH 2.7, 0.1% aqueous formic acid/acetonitrile, 55° C.
[3] = neutral range, pH 7.8, value in preparation example text, read-out: log P (neutral)
[4] = acidic range, pH 2.7, 0.1% aqueous formic acid/acetonitrile, 55° C., read-out: LOGP_HCOOH

Row | Compound | LOGP_HCOOH [1, 2] | LOGP_NEUTRAL ([1]; neutral range, 55° C.) | chromatographic logP [1, 3] | chromatographic logP [1, 4] | efficacy (Phaedon cochleariae; 100 g/ha) | efficacy (Spodoptera frugiperda) | efficacy (Phaedon cochleariae; 500 g/ha)
1 | CCS(=O)(=O)c1c(-c2nc3cc(C(F)(F)F)ccc3s2)nc2ccccn12 [Example I-43] | 3.60 | – | – | – | 83% | – | –
2 | CCSc1c(-c2nc3cc(C(F)(F)F)ccc3n2C)nc2ccc(C(F)(F)F)cn12 [Example I-28] | 4.47 | – | – | – | – | 100% | –
3 | CCS(=O)(=O)c1cccn2c(S(=O)(=O)CC)c(-c3nc4cc(C(F)(F)F)ncc4n3C)nc12 [Example I-39] | 2.30 | 2.29 | – | – | – | 100% | 100%
4 | CC[S+]([O-])c1c(-c2nc3cc(C(F)(F)F)ncc3n2C)nc2c(C(F)(F)F)cccn12 (stereo not drawn) [Example I-25] | 3.29 | 3.21 | – | – | – | 100% | 100%
5 | CC[S+]([O-])c1c(-c2nc3cc(C(F)(F)F)ncc3n2C)nc2ccc(OC)cn12 (stereo not drawn) [Example I-55] | 2.54 | 2.48 | – | – | – | – | –
6 | CCS(=O)(=O)c1c(-c2nc3cc(C(F)(F)F)ccc3n2C)nc2ccc(Cl)cn12 [Example I-42] | 3.34 | – | – | – | – | 100% | 100%
7 | CC[S+]([O-])c1c(-c2nc3cc(C(F)(F)F)ncc3n2C)nc2ccc(C(F)(F)F)cn12 (stereo not drawn) [Example I-8] | 3.25 | – | – | – | – | 100% | 100%
8 | CCSc1c(-c2nc3cc(C(F)(F)F)ncc3n2C)nc2ccc(C(F)(F)F)cn12 [Example I-5] | 3.81 | 3.75 | – | – | – | 100% | –
9 | CCOC(=O)c1nc2ccccn2c1S(=O)(=O)CC [XXIV-1, Ethyl 3-(ethylsulphonyl)imidazo[1,2-a]pyridine-2-carboxylate] | – | – | 1.52 | – | – | – | –
10 | CCSc1c(-c2nc3cc(C(F)(F)F)ncc3n2C)nc2c(Cl)cccn12 [Example I-14] | 3.33 | 3.34 | – | – | – | – | –
11 | CCS(=O)(=O)c1c(-c2nc3cc4c(cc3[nH]2)OC(F)(F)O4)nc2ccccn12 [Example I-40, 6-[3-(Ethylsulphonyl)imidazo[1,2-a]pyridin-2-yl]-2,2-difluoro-5H-[1,3]dioxolo[4,5-f]benzimidazole] | – | 2.59 | 2.59 | 2.51 | – | – | 100%

Now from value to molecule, other results behind:

Row | LOGP_HCOOH [1, 2] | LOGP_NEUTRAL ([1]; neutral range, 55° C.) | chromatographic logP [1, 3] | chromatographic logP [1, 4] | Compound | efficacy (Phaedon cochleariae; 100 g/ha) | efficacy (Spodoptera frugiperda) | efficacy (Phaedon cochleariae; 500 g/ha)
12 | 2.89 | – | – | – | CCS(=O)(=O)c1c(-c2nc3cc(C(F)(F)F)cnc3o2)nc2ccc(C)cn12 [Example I-56] | – | – | –
13 | 3.53 | – | – | – | CCS(=O)(=O)c1c(-c2nc3cc(C(F)(F)F)cnc3o2)nc2cc(C(F)(F)F)ccn12 [Example I-49] | – | 100% | 100%
14 | 4.23 | – | – | – | CCSc1ccn2c(SCC)c(-c3nc4cc(C(F)(F)F)ccc4n3C)nc2c1 [Example I-32] | – | – | –
15 | 2.53 | 2.52 | 2.52 | – | CCS(=O)(=O)c1c(-c2nc3cc(C(F)(F)F)cnc3o2)nc2ccccn12 [Example I-44, 2-[3-(Ethylsulphonyl)imidazo[1,2-a]pyridin-2-yl]-6-(trifluoromethyl) [1,3]oxazolo[5,4-b]pyridine] | – | 83% | 100%
16 | 4.11 | – | – | – | CCSc1c(-c2nc3cc(C(F)(F)F)cnc3o2)nc2cccc(C(F)(F)F)n12 [Example I-57] | – | – | –
17 | 4.12 | – | – | – | CCSc1c(-c2nc3cc(C(F)(F)F)ccc3n2C)nc2ccc(Cl)cn12 [Example I-29] | – | 100% | 100%
18 | – | 3.15 | 3.15 | 3.2 | CCSc1c(-c2nc3cc(C(F)(F)F)cnc3o2)nc2ccccn12 [Example I-60, 2-[3-(Ethylsulphanyl)imidazo[1,2-a]pyridin-2-yl]-6-(trifluoromethyl) [1,3]oxazolo[5,4-b]pyridine] | – | – | –
19 | 3.57 | – | – | – | CCSc1c(-c2nc3cc(C(F)(F)F)ccc3n2C)nc2ccc(C)cn12 [Example I-38] | – | – | –
